Assay results: patent US20250230226A1, “PLXDC1/PLXDC2 ACTIVATORS AND THEIR USE IN THE TREATMENT OF BLOOD VESSEL DISORDERS” (THE REGENTS OF THE UNIVERSITY OF CALIFORNIA, priority 2019, published 2025)

Tested on: LL/2 lung cancer tumor endothelial cells
Assay: Lung LL2 ex vivo model of tumor angiogenesis
Type: cell-based, mouse
Conditions: for 48 hrs (morphology observations): LL/2 tumor endothelial cells; for Cell death: drug treatment for two days, ratio of red area to total endothelial cell area
Experimental: An ex vivo tumor angiogenesis model was developed to test the efficacy of anti-cancer candidate agents. The following protocol describes the Ex Vivo Tumor Angiogenesis Model.
• 1. The day before the experiment, all necessary tools were sprayed with 70% ethanol and sterilized under UV light overnight, including blade, dissecting and micro-dissecting scissors and […]. 24-well dishes were placed at 4° C. to pre-chill plates and Matrigel was thawed, 24 hours before tumor dissection. • 2. 70% ethanol was sprayed on working bench. Two sterile petri dishes were prepared with 10 ml sterile PBS. The following steps 3 and 4 are necessary for mouse tumor models. For fresh human tumor, steps 3 and 4 are skipped. • 3. The tumor-bearing mice were euthanized. 70% ethanol was sprayed on the mouse and the tumor was removed using sterilized dissecting tools (avoid the fur). The tumor was rinsed in petri dish with sterile PBS to remove ethanol and fur. The tumor was transferred to a new petri dish with PBS for dissection. The dish is placed on ice. • 4. Pre-chilled sterile pipet tips were used to seed regular Matrigel in 24 well plates on ice. Matrigel (30 μl) was dropped in the middle of each well without touching the edge of the well (avoid introducing bubbles if possible). • 5. The tumor was cut in halves using the sterile blade. Healthy tumor tissue that is not necrotic and is within the tumor capsule was identified and isolated. The healthy tumor tissue was cut into small pieces. For instance, a suitable size for the tumor tissue is 0.5 mm (H)×0.5 mm (L)×0.3 mm (D) with a total volume of 0.075 mm^3. • 6. Each tumor piece was gently transferred and embedded in the Matrigel drop in the 24-well plate. The embedded piece was placed in the bottom and middle of each Matrigel drop. The plate was kept on ice all the time. • 7. After seeding the tumor pieces, plates were incubated in a 37° C. cell culture incubator without medium for 10 minutes in order for the Matrigel to solidify. • 8. Endothelial Growth Medium (0.5 ml) was added to each well and incubated at 37° C. with 5% CO2. Treatment was not added until the new endothelial cells was grown out of the tumor or were larger than 3 mm in diameter. This usually takes 4 days for the LL2 Lewis lung cancer model and 7 days for the CT26 colon cancer model. For human tumor models, the growth time is typically 2-3 weeks, depending on the tumor type. Media was changed every 4 days during prolonged culture. Typically, when the tumor tissue grows to 2 mm in diameter, it was good for drug testing. A size of about 3 mm in diameter can make visualization easier. • 9. When the assay was ready to be analyzed for cell death (e.g., 48 hours after drug addition), the dye mixture was prepared by mixing 6 μl of green dye to stain live cells (5 mg/ml Fluorescein diacetate or FDA in DMSO) with 30 μl of red dye (2.5 mg/ml Propidium iodide or PI in PBS) to stain dead cells in an Eppendorf tube. The FDA dye needs to be stored frozen in a −20° C. freezer because it has a labile ester bond. • 10. 1 μl of the dye mixture was added to each well of the 24-well dish. It is usually preferred to do one 24-well dish at a time given the amount of time needed to take pictures (the green dye is not as stable in the cells in the long term). • 11. The dish was gently rocked a few times to mix the dye with the media in the wells and incubate the dish at 37° C. for 10 min (too long incubation can make the green signal too intense). • 12. Each well was washed with 0.5 ml of sterile PBS and then 0.5 ml of phenol red free SFM was added to each well. Alternatively 0.5 ml of regular Endothelial Cell Growth Media can be added to each well if this well needs to be continuously maintained after the experiment. • 13. An inverted microscope using the 2× objective lens was used to observe morphological changes in the experimental wells. • 14. […]

[1] = Mus musculus, Endothelial cell, 48 h, read-out: Cell death

SMILES: COc1ccc(C2CCN(c3c(S(=O)(=O)c4ccc(OC)cc4)cnc4cc(OC)c(OC)cc34)CC2)cc1 [Compound 311]
- 48 hrs (morphology observations) (40 μm): 0
- Cell death (40 μm): 30%

SMILES: CCOC(=O)c1ccc2ncc(S(=O)(=O)c3ccc(OC)cc3)c(N3CCC(N4CCN(C)CC4)CC3)c2c1 [Compound 171]
- 48 hrs (morphology observations) (40 μm): 0
- Cell death (40 μm): 40%

SMILES: CCCCCCCCCCOc1ccc(S(=O)(=O)c2cnc3ccc([S+](C)[O-])cc3c2N2CCC(N3CCC(N4CCCCC4)CC3)CC2)cc1F (stereo not shown) [Compound 290]
- 48 hrs (morphology observations) (10 μm): *** (more than 50% but less than 100% of endothelial cells vesicularize in cell shape)
- cytotoxicity at 10 µM [1]: 50%

SMILES: CCCCOc1ccc(S(=O)(=O)c2cnc3ccc([S+](C)[O-])cc3c2N2CCC(N3CCCCC3)CC2)cc1 (stereo not shown) [Compound 167]
- 48 hrs (morphology observations) (20 μm): 0
- Cell death (20 μm): 40%

SMILES: CCCCOc1ccc(S(=O)(=O)c2cnc3ccc(SC)cc3c2N2CCC(N3CCOCC3)CC2)cc1 [Compound 229]
- 48 hrs (morphology observations) (40 μm): 0
- Cell death (40 μm): 30%

SMILES: CCCCOc1ccc(S(=O)(=O)c2cnc3ccc([S+](C)[O-])cc3c2N2CCC(N3CCN(CCO)CC3)CC2)cc1 (stereo not shown) [Compound 236]
- 48 hrs (morphology observations) (40 μm): 0
- Cell death (40 μm): 5%

SMILES: CCOC(=O)c1ccc2ncc(S(=O)(=O)c3ccc(OC)cc3)c(N3CCCN(CCN4CCCC4)CC3)c2c1 [Compound 180]
- 48 hrs (morphology observations) (10 μm): *** (more than 50% but less than 100% of endothelial cells vesicularize in cell shape)
- Cell death (10 μm): 70%

SMILES: CCCCCCCCCCOc1ccc(S(=O)(=O)c2cnc3ccc([S+](C)[O-])cc3c2N2CCC(N3CCC(N4CCN(CCO)CC4)CC3)CC2)cc1 (stereo not shown) [Compound 292]
- Cell death, read at 24 hrs (20 μm, (24 hrs)): 10%
- Endothelial cell morphology score at 24 hrs (20 μm, (24 hrs)): * (50% or less of cells vesicularize in cell shape)

SMILES: CC(C)CCCC(C)CCOc1ccc(S(=O)(=O)c2cnc3ccc([S+](C)[O-])cc3c2N2CCC(N3CCC(N4CCCCC4)CC3)CC2)cc1 (stereo not shown) [Compound 289]
- Cell death (20 μm): 20%

SMILES: COc1ccc(S(=O)(=O)c2cnc3cc(OC)c(OC)cc3c2N2CCC(O)(c3ccccc3)CC2)cc1 [Compound 308]
- 48 hrs (morphology observations) (40 μm): 0
- Cell death (40 μm): 20%

SMILES: CCc1ccc(S(=O)(=O)c2cnc3ccc(OC(F)(F)F)cc3c2Nc2ccncc2)cc1 [Compound 107]
- 48 hrs (morphology observations) (20 μm): 0
- Cell death (20 μm): 0%

SMILES: CCCCOc1ccc(S(=O)(=O)c2cnc3ccc(C(=O)OCC)cc3c2N2CCN(c3ccc(F)cc3)CC2)cc1 [Compound 213]
- 48 hrs (morphology observations) (40 μm): 0
- cytotoxicity at 40 µM [1]: 30%

SMILES: CCCCCCCCCCCCCCOc1ccc(S(=O)(=O)c2cnc3ccc([S+](C)[O-])cc3c2N2CCC(N3CCC(N4CCC(O)CC4)CC3)CC2)cc1F (stereo not shown) [Compound 373]
- 48 hrs (morphology observations) (20 μm): * (50% or less of cells vesicularize in cell shape)
- Cell death (20 μm): 20%

SMILES: COc1ccc(S(=O)(=O)c2cnc3cc(OC)c(OC)cc3c2N2CCCN(CCO)CC2)cc1 [Compound 323]
- 48 hrs (morphology observations) (40 μm): 0
- Cell death (40 μm): 30%

SMILES: CCCCOc1ccc(S(=O)(=O)c2cnc3ccc(SC)cc3c2N2CCC(N3CCC(N4CCCCC4)CC3)CC2)cc1 [Compound 231]
- 48 hrs (morphology observations) (40 μm): *** (more than 50% but less than 100% of endothelial cells vesicularize in cell shape)
- Cell death (40 μm): 100%

SMILES: COc1ccc(S(=O)(=O)c2cnc3ccc(C(=O)N(C)C)cc3c2N2CCC(N3CCCCC3)CC2)cc1 [Compound 331]
- 48 hrs (morphology observations) (40 μm): 0
- Cell death (40 μm): 10%

SMILES: CCc1ccc(S(=O)(=O)c2cnc3ccc(OC(F)(F)F)cc3c2N2CCC(N(CC)CC)CC2)cc1 [Compound 103]
- 48 hrs (morphology observations) (20 μm): 0
- Cell death (20 μm): 10%

SMILES: CCc1ccc(S(=O)(=O)c2cnc3ccc(OC(F)(F)F)cc3c2NN2CCOCC2)cc1 [Compound 126]
- 48 hrs (morphology observations) (20 μm): 0
- Cell death (20 μm): 10%

SMILES: CCOC(=O)c1ccc2ncc(S(=O)(=O)c3ccc(OC)cc3)c(N3CCC(N4CCCC(O)C4)CC3)c2c1 (stereo not shown) [Compound 174]
- 48 hrs (morphology observations) (40 μm): 0
- Cell death (40 μm): 30%

SMILES: CCCCCCCCCCOc1ccc(S(=O)(=O)c2cnc3ccc([S+](C)[O-])cc3c2N2CCC(N3CCCN(C)CC3)CC2)cc1 (stereo not shown) [Compound 267]
- 48 hrs (morphology observations) (10 μm): 0
- Cell death (10 μm): 5%

SMILES: CCCCOc1ccc(S(=O)(=O)c2cnc3ccc(C(=O)NC4C(O)O[C@H](CO)[C@@H](O)[C@@H]4O)cc3c2N2CCCN(C)CC2)cc1 (stereo partly shown) [Compound 193]
- 48 hrs (morphology observations) (40 μm): 0
- cytotoxicity at 40 µM [1]: 30%

SMILES: CCCCOc1ccc(S(=O)(=O)c2cnc3ccc(C(=O)OCC)cc3c2N2CCC(N3CCCC(O)C3)CC2)cc1 (stereo not shown) [Compound 177]
- 48 hrs (morphology observations) (40 μm): **** (100% of endothelial cells vesicularize in cell shape and look flattened in morphology (indicating disintegration of the cell body))
- Cell death (40 μm): 100%

SMILES: CCCCOc1ccc(S(=O)(=O)c2cnc3ccc([S+](C)[O-])cc3c2N2CCC(N3CCC(CO)CC3)CC2)cc1 (stereo not shown) [Compound 240]
- 48 hrs (morphology observations) (40 μm): 0
- Cell death (40 μm): 30%

SMILES: CCCCCCCOc1ccc(S(=O)(=O)c2cnc3ccc([S+](C)[O-])cc3c2N2CCN(CCN3CCCCC3)CC2)cc1 (stereo not shown) [Compound 282]
- 48 hrs (morphology observations) (10 μm): 0
- Cell death (10 μm): 10%

SMILES: CCCCCCCCCCOc1ccc(S(=O)(=O)c2cnc3ccc([S+](C)[O-])cc3c2N2CCC(N3CCCC(O)C3)CC2)cc1 (stereo not shown) [Compound 265]
- 48 hrs (morphology observations) (10 μm): * (50% or less of cells vesicularize in cell shape)
- Cell death (10 μm): 20%

SMILES: CCCCOc1ccc(S(=O)(=O)c2cnc3ccc(SC)cc3c2N2CCCN(CC3(O)CCCC3)CC2)cc1 [Compound 354]
- 48 hrs (morphology observations) (40 μm): 0
- cytotoxicity at 40 µM [1]: 0%

SMILES: CCCCCCCCCCCCOc1ccc(S(=O)(=O)c2cnc3ccc([S+](C)[O-])cc3c2N2CCC(N3CCN(CCO)CC3)CC2)cc1F (stereo not shown) [Compound 362]
- 48 hrs (morphology observations) (20 μm): *** (more than 50% but less than 100% of endothelial cells vesicularize in cell shape)
- Cell death (20 μm): 20%

SMILES: COc1ccc(S(=O)(=O)c2cnc3cc(OC)c(OC)cc3c2N2CCC3C(COCCN3CC(C)C)C2)cc1 (stereo not shown) [Compound 324]
- 48 hrs (morphology observations) (40 μm): 0
- Cell death (40 μm): 60%

SMILES: CCCCOc1ccc(S(=O)(=O)c2cnc3ccc(SC)cc3c2N2CCC(N3CCSCC3)CC2)cc1 [Compound 243]
- 48 hrs (morphology observations) (40 μm): 0
- Cell death (40 μm): 20%

SMILES: CCCCCCCOc1ccc(S(=O)(=O)c2cnc3ccc(SC)cc3c2N2CCC(N3CCC(O)(c4ccccc4)CC3)CC2)cc1 [Compound 262]
- 48 hrs (morphology observations) (10 μm): 0
- Cell death (10 μm): 20%

SMILES: CCCCOc1ccc(S(=O)(=O)c2cnc3ccc(C(=O)OCC)cc3c2N2CCC(N3CCC(CO)CC3)CC2)cc1 [Compound 178]
- 48 hrs (morphology observations) (40 μm): **** (100% of endothelial cells vesicularize in cell shape and look flattened in morphology (indicating disintegration of the cell body))
- Cell death (40 μm): 100%

SMILES: CC(C)CCCC(C)CCOc1ccc(S(=O)(=O)c2cnc3ccc([S+](C)[O-])cc3c2N2CCC(N3CCN(CCO)CC3)CC2)cc1 (stereo not shown) [Compound 284]
- 48 hrs (morphology observations) (10 μm): 0
- Cell death (10 μm): 10%

SMILES: CCCCOc1ccc(S(=O)(=O)c2cnc3ccc(SC)cc3c2N2CCC(N3CCC(O)(c4ccccc4)CC3)CC2)cc1 [Compound 232]
- 48 hrs (morphology observations) (40 μm): 0
- Cell death (40 μm): 10%

SMILES: CCCCCCCOc1ccc(S(=O)(=O)c2cnc3ccc(SC)cc3c2N2CCC(N3CCN(CCO)CC3)CC2)cc1 [Compound 250]
- 48 hrs (morphology observations) (20 μm): *** (more than 50% but less than 100% of endothelial cells vesicularize in cell shape)
- Cell death (20 μm): 90%
